Where a SMILES comes first, the peptide text is derived from it.
Columns and labels:
[1] = Sensory stability of monatin in water; type: physicochemical
Description: The sensory stability of monatin (racemic mix described in Example 14) in water (8% SEV) was studied after storage at room temperature for 0 to 6 hours. The SEV was monitored (as described above in Example 14) at either 0-1 hours or 5-6 hours after preparing a monatin solution.

[2] = Sensory evaluation of sweeteners in coffee and iced tea; type: in vivo; settings: Coffee, 200 mL serving; aspartame 250 ppm, sucralose 82 ppm, R,R monatin 25 ppm + maltodextrin or erythritol (1 g, 0.5%)
Description: Monatin sweetener formulations, comprising R,R monatin or R,R monatin/erythritol combinations, were assessed relative to other known sweeteners (aspartame and sucralose) in coffee and iced tea. The key sensory parameters assessed included sweetness quality, aftertaste, bitter taste and its aftertaste. Qualitative evaluation was carried out.
Standard coffee was used in which to evaluate sweetener performance (Table 17).
Sweeteners were added to coffee at the following concentrations:
An ice tea formulation was developed to evaluate sweetener performance (Table 18).
Sweeteners were added to tea at the following concentrations:
The evaluation of these coffee and tea drinks was carried out by a panel (n=6) of experienced sensory evaluators who evaluated the coffee products on one tasting occasion and the tea products on a subsequent occasion.

NC(CC(O)(Cc1c[nH]c2ccccc12)C(=O)O)C(=O)O (racemic) [Monatin, 2-hydroxy-2-(indol-3-ylmethyl)-4-aminoglutaric acid]
loss of monatin SEV ([1]; 8% SEV, after 6 hours in room temperature): no detectable loss
lactonization (LC/MS) ([1]; room temperature, 0 to 6 hours): no lactonization

COC(=O)[C@H](Cc1ccccc1)NC(=O)[C@@H](N)CC(=O)O [Aspartame, aspartame] (H-Asp-Phe-OMe)
Comments (sensory evaluation) [2]: Balanced sweetness profile. Very low level

— patent US20050106305A1, “Beverage compositions comprising monatin and methods of making same” (Cargill, Inc., priority 2003, published 2005)
